Values quoted from earlier work, collected in PMC5189927 (Molecular Psychiatry, 2014).
Counter-ions that a name gives are not always drawn. Each block holds one molecule with its values, some of them ahead of it.

Key:
[1] = test system: glucocerebrosidase
[2] = test system: glucocerebrosidase; details: healthy volunteers
[3] = test system: α-galactosidase A; details: Fabry patients with amenable mutations, phase 3, 12 months of treatment
[4] = test system: α-galactosidase A; details: healthy volunteers
[5] = test system: β-hex A; details: phase 1/2, Tay–Sachs and Sandhoff patients

Increase in wild-type glucocerebrosidase levels [2]: two- to threefold
SMILES: OC[C@H]1CNC[C@@H](O)[C@@H]1O [isofagomine, isofagomine tartrate]
Glucocerebrosidase levels in peripheral blood mononuclear cells ([1]; healthy volunteers (phase 1) and type I Gaucher patients (phase 2)): significantly increased
Gaucher patients with clinically meaningful end points ([1]; phase 2, doses and dosing regimens assessed): 1 of 18

Increase in wild-type α-galactosidase A levels [4]: two- to threefold
SMILES: OC[C@H]1NC[C@H](O)[C@@H](O)[C@H]1O [migalastat, deoxygalactonojirimycin hydrochloride]
Levels of kidney interstitial capillary GL-3 [3]: statistically significant reduction

SMILES: CCc1nc(N)nc(N)c1-c1ccc(Cl)cc1 [pyrimethamine, Pyrimethamine]
Side effects [5]: severe side effects
β-hex A levels in patients [5]: increased β-hex A levels for all eight patients
